Results from patent US12503484B2, “Androstane derivatives with activity as pure or predominantly pure stimulators of SERCA2a for the treatment of heart failure” (Seismic Pharmaceuticals, priority 2019, dated 2025).
Structures can show the parent of a compound that is named as a salt. Where two headings read alike, the source gives them in different places.

Experiments:
in vivo = test: in vivo; set-up: dose or concentration left out as unconfirmed; details: rat
STZ diabetic rats = test: Haemodynamics in streptozotocin diabetic rats (echocardiography); format: in vivo, rat
Experimental: CVie214 and CVie216 were tested in a diabetic rat model. Briefly, rats were injected with streptozotocin (STZ). After 7-9 weeks from STZ injection, rats were submitted to transthoracic echocardiographic and Doppler evaluation performed under urethane anesthesia. Two-dimensionally guided M-mode recordings were used to obtain short-axis measurements of left ventricular end-diastolic diameter (LVEDD), left ventricular end-systolic diameter (LVESD), posterior (PW) and septal (SW) diastolic wall thickness according to the American Society of Echocardiography guidelines (Lang R M et al., Eur J Echocardiography 2006, 7:79-108). Fractional shortening was calculated as FS=(LVEDD−LVESD)/LVEDD. Relative wall thickness was calculated as PWTd+IVSTd/LVEDD. Mitral inflow was measured by pulsed Doppler at the tips of mitral leaflets from an apical 4-chamber view to obtain early and late filling velocities (E, A) and deceleration time of early filling velocity (DT). The deceleration slope was calculated as E/DT ratio. The mitral deceleration index was calculated as DT/E ratio. Tissue Doppler Imaging (TDI) was evaluated from the apical 4-chamber view to record septal mitral annular movements, i.e., peak myocardial systolic (s′) and early and late diastolic velocity (e′ and a′).
After baseline hemodynamic measurements were taken, the rats were administered Digoxin, CVie214, CVie216 and compared to control. Digoxin, used as reference drug, was intravenously infused at 0.11 mg/kg/min for 15 min and echocardiographic parameters measured after 1 h. CVie214-salt and CVie216-salt were intravenously infused in STZ diabetic rats at 0.2 mg/kg/min and echocardiographic parameters were measured after 15 min and 30 min.
Tables 4-6 show the haemodynamic parameters in STZ diabetic rats for Digoxin, CVie214-salt, and Cvie216-salt.

[1] = Acute toxicity in the mouse; details: Albino Swiss CD-1, in vivo
Experimental: The acute toxicity of the tested compound CVie214-salt and CVie216-salt have been determined in the mouse (Albino Swiss CD-1, body weight 30 g). Compounds have been orally administered or intravenously injected at increasing doses to identify the dose causing 50% mortality. Mortality occurred within 30 min after the administration and survival after 24 h.
As comparison, the acute toxicity for the reference compounds Digoxin and Istaroxime were also included. Digoxin refers to literature data (www.lookchem.com, Reference for Digoxin intravenous: Afifi A M, Ammar E M. Pharmacological Research Communications. Vol. 6, Pg. 417, 1974; Reference for Digoxin oral: Archives Internationales de Pharmacodynamie et de Therapie. Vol. 153, Pg. 436, 1965) (Table 3).

SERCA2a = SERCA2a (Cavia porcellus, UniProt A0A286XD73); test: SERCA2a ATPase activity in heart-derived SR microsomes from normal guinea-pig; format: biochemical; details: read-out: Kd Ca2+ (nM) mean ± SD
Experimental: SERCA2a ATPase Activity in Heart-Derived SR Microsomes from Normal Quinea-Pig
SERCA2a activity was measured in vitro as ^32P-ATP hydrolysis at different Ca^2+ concentrations (100-4000 nM) in the absence and presence of the tested compounds, as described (Micheletti R. et al., Am J Card 2007, 99:24A-32A). Increasing concentrations of each compound (ranging from 1 to 200 nM) were pre-incubated with 2 μg of SERCA2a enriched microsomes for 5 min at 4° C. in 80 μl of a solution containing 100 mM KCl, 5 mM MgCl2, 1 μM A23187, 20 mM Tris, pH 7.5. […] SERCA2a-dependent activity was identified as the portion of total hydrolytic activity inhibited by 10 μM cyclopiazonic acid (Seidler N W et al., J Biol Chem. 1989, 264:17816-23).
Dose-response curves were fitted by using a sigmoidal equation and the activity at the maximal velocity (Vmax) and the Kd for Ca^2+ were calculated (Synergy Software KaleidaGraph 3.6). The effect of the compounds in normal guinea-pig preparations was expressed as % decrease of Kd Ca^2+ (implying an increase of affinity for Ca^2+) of a control sample run in the absence of compound (Table 2). […] Data are mean±SD, n=number of experiments, *at least p<0.05.

[2] = target: dog renal Na^+/K^+ ATPase (Canis lupus familiaris (Dog) (Canis familiaris), UniProt P50997); test: biochemical; details: IC50 inhibition of dog renal Na+/K+ ATPase, purified dog kidney enzyme;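 note: enzyme preincubated with inhibitor 10 min at 37 °C, then K^+ and ^32P-ATP added for 15 min, released ^32P counted, activity relative to untreated control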
From the text: Inhibition of Dog Renal Na^+/K^+ ATPase Activity
The compounds were thus tested for their inhibitory effect on the canine renal Na^+/K^+ ATPase enzyme.
Kidneys were excised from 1-3 year-old male beagle dogs (WuXi AppTec, Suzhou Co., Ltd. 1318 Wuzhong Ave., Wuzhong District Suzhou, 215104 P.R. China) under pentobarbital anesthesia (Import Authorization from Italian Health Ministry 0009171-09/04/2015-DGSAF-COD_UO-P, 2015). Kidneys were sliced and the outer medulla was dissected and suspended (1 g/10 ml) in a sucrose-histidine solution containing 250 mM sucrose, 30 mM histidine, and 5 mM EDTA, pH 7.2. The tissue was homogenized by using an Ultra Turrax homogenizer. The sample was centrifuged at 6,000 g for 15 min. Next, the supernatant was decanted and centrifuged at 48,000 g for 30 min. The pellet was suspended in the sucrose-histidine buffer and incubated for 20 min with a sodium-dodecyl-sulphate (SDS) solution dissolved in a gradient buffer containing 25 mM imidazole and 1 mM EDTA, pH 7.5. The sample was layered on the top of a sucrose discontinuous gradient (10, 15, and 29.4%) and centrifuged at 60,000 g for 115 min. The pellet was suspended in the gradient buffer.
Increasing concentrations of the standard ouabain, or tested compound, were incubated with 0.3 μg of purified dog kidney enzyme for 10 min at 37° C. in 120 μl final volume of a medium containing 140 mM NaCl, 3 mM MgCl2, 50 mM Hepes-Tris, 3 mM ATP, pH 7.5. Then, 10 μl of a solution containing 10 mM KCl and 20 nCi of ^32P-ATP (3-10 Ci/mmol, Perkin Elmer) were added. The reaction was allowed to continue for 15 min at 37° C. and then stopped by acidification with 20% v/v ice-cold perchloric acid. ^32P was separated by centrifugation with activated Charcoal (Norit A, Serva) and the radioactivity was counted. The inhibitory activity was expressed as percent of the control samples carried out in the absence of ouabain, or tested compound.

[3] = after 15 min IV infusion 0.2 mg/kg/min
[4] = after 30 min IV infusion 0.2 mg/kg/min

SERCA2a, sequence (A0A286XD73 1-997): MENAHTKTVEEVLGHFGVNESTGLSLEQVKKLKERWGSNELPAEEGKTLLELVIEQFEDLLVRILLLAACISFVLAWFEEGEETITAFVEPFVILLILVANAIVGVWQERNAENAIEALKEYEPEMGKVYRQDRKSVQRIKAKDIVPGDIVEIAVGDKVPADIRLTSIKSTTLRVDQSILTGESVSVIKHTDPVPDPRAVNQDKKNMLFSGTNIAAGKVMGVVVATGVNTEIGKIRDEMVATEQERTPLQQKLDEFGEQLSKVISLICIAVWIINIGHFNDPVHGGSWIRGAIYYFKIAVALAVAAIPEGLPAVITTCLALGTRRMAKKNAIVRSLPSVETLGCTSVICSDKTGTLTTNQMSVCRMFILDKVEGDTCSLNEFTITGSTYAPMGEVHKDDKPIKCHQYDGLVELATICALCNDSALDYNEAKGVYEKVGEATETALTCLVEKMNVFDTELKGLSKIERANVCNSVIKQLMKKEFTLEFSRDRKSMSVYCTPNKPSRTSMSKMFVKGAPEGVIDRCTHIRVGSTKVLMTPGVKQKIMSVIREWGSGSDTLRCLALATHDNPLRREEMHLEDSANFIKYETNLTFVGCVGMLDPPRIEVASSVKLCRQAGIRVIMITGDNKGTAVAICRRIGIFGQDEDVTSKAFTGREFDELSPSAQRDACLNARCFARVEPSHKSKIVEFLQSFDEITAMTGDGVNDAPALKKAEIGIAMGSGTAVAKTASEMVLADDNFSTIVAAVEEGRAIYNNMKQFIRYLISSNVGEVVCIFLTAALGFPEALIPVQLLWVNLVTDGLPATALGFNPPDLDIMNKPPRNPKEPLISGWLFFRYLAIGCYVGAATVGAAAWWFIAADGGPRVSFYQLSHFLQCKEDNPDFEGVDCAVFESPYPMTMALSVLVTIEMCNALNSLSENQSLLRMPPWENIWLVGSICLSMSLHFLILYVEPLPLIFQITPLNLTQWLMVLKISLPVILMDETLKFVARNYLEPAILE

Structure (SMILES): C[C@]12CC[C@H](CCCC(=O)O)CC1[C@@H](O)CC1C2CC[C@]2(C)C(=O)CCC12 (stereo partly drawn) [CVie214-salt, 4-(6alpha-hydroxy-17-oxoandrostane-3-yl) butyric acid]
- bioavailability (in vivo): 41.5%
- diastolic function (in words) (STZ diabetic rats; IV infusion): ameliorated diastolic function
- overall cardiac function, SV and CO (in words) (STZ diabetic rats; IV infusion): improvement
- A late filling velocity of mitral inflow (STZ diabetic rats; [3]): 0.65 ± 0.13 m/s
- CO cardiac output (STZ diabetic rats; [3]): 177.23 ± 40.64 mL/min
- DT deceleration time of E wave (STZ diabetic rats; [3]): 42.5 ± 10.19 ms
- DT/E mitral deceleration index (STZ diabetic rats; [3]): 49.52 ± 12.41 s2/m
- E early filling velocity of mitral inflow (STZ diabetic rats; [3]): 0.88 ± 0.15 m/s
- E/A index of LV function (STZ diabetic rats; [3]): 1.36 ± 0.17
- E/DT deceleration slope (STZ diabetic rats; [3]): 21.49 ± 5.8 m/s2
- E/e′ index of LV filling pressure (STZ diabetic rats; [3]): 37.49 ± 4.34
- FS fractional shortening (STZ diabetic rats; [3]): 58.1 ± 8.59%
- HR heart rate (STZ diabetic rats; [3]): 268 ± 54 beat/min
- SV stroke volume (STZ diabetic rats; [3]): 0.68 ± 0.19 ml/beat
- a′ TDI late relaxation velocity (STZ diabetic rats; [3]): 29.13 ± 6.56 cm/s
- e′ TDI early relaxation velocity (STZ diabetic rats; [3]): 23.33 ± 2.62 cm/s
- s′ TDI contraction velocity (STZ diabetic rats; [3]): 22.45 ± 3.12 cm/s
- A late filling velocity of mitral inflow (STZ diabetic rats; [4]): 0.69 ± 0.11 m/s
- CO cardiac output (STZ diabetic rats; [4]): 175.15 ± 33.96 mL/min
- DT deceleration time of E wave (STZ diabetic rats; [4]): 42.15 ± 9.88 ms
- DT/E mitral deceleration index (STZ diabetic rats; [4]): 48.51 ± 16.44 s2/m
- E early filling velocity of mitral inflow (STZ diabetic rats; [4]): 0.91 ± 0.16 m/s
- E/A index of LV function (STZ diabetic rats; [4]): 1.34 ± 0.21
- E/DT deceleration slope (STZ diabetic rats; [4]): 23.18 ± 8.37 m/s2
- E/e′ index of LV filling pressure (STZ diabetic rats; [4]): 37.47 ± 4.48
- FS fractional shortening (STZ diabetic rats; [4]): 60.69 ± 8.36%
- HR heart rate (STZ diabetic rats; [4]): 252 ± 49 beat/min
- SV stroke volume (STZ diabetic rats; [4]): 0.71 ± 0.16 ml/beat
- a′ TDI late relaxation velocity (STZ diabetic rats; [4]): 28.94 ± 5.32 cm/s
- e′ TDI early relaxation velocity (STZ diabetic rats; [4]): 24.24 ± 2.34 cm/s
- s′ TDI contraction velocity (STZ diabetic rats; [4]): 21.82 ± 2.81 cm/s
- LD50 at 24 h ([1]; iv): 300 mg/kg
- LD50 at 24 h ([1]; oral, os): > 800 mg/kg

Structure (SMILES): C[C@]12CC/C(=N/OCCN)C[C@@H]1C(=O)C[C@@H]1[C@@H]2CC[C@]2(C)C(=O)CC[C@@H]12 [Istaroxime, (3Z,5a)-3-[(2-aminoethoxy)imino]androstane-6,17-dione, reference compound]
- Kd (SERCA2a; compound 1 nM): 524 ± 57.4 nM
- Kd (SERCA2a; compound 10 nM): 464 ± 52.4 nM
- Kd (SERCA2a; compound 100 nM): 462 ± 59.1 nM
- LD50 at 24 h ([1]; iv): 29 to 32 mg/kg
- LD50 at 24 h ([1]; oral, os): 200 mg/kg
- IC50 [2]: 140 nM
